Measurements published in the NIST ThermoML archive (doi:10.1016/j.jct.2016.10.034).
Numbers after ± are expanded uncertainties.

Columns and labels:
[1] = for viscosity / mass density: 100 kPa, Liquid; for viscosity: Falling or rolling sphere viscometry; for mass density: Vibrating tube method; for Glass transition temperature: DSC
[2] = xn = mol fraction of the nth substance listed; conditions: 100 kPa, Liquid, x2 = 0; for viscosity: Falling or rolling sphere viscometry; for mass density: Vibrating tube method

CC(=O)[O-].CC[N+]1(C)CCCC1 [1-ethyl-1-methylpyrrolidinium acetate]
[1]
Conditions	mass density [kg/m3]	viscosity [mPa·s]
298.15 K	1064.5 ± 2.2	240 ± 27
303.15 K	1061.8 ± 2.2	184 ± 20
308.15 K	1058.7 ± 2.2	145 ± 15
313.15 K	1055.9 ± 2.2	117 ± 12
318.15 K	1053.1 ± 2.2	93.4 ± 9.7
323.15 K	1050.3 ± 2.2	74 ± 7.6
328.15 K	1047.4 ± 2.2	60 ± 6.1
333.15 K	1044.4 ± 2.1	49.2 ± 5
338.15 K	1041.8 ± 2.1	39.4 ± 4
343.15 K	1038.8 ± 2.1	32.4 ± 3.3
348.15 K	1035.9 ± 2.1	26 ± 2.6

Conditions	Glass transition temperature [°C]
[1]	-88 ± 20

CC[N+]1(C)CCCC1.O=C([O-])CO [1-ethyl-1-methylpyrrolidinium glycolate]
[1]
Conditions	mass density [kg/m3]	viscosity [mPa·s]
298.15 K	1134 ± 2.5	345 ± 41
303.15 K	1130.7 ± 2.5	254 ± 29
308.15 K	1127.3 ± 2.4	192 ± 21
313.15 K	1124 ± 2.4	151 ± 16
318.15 K	1120.8 ± 2.4	116 ± 12
323.15 K	1117.6 ± 2.4	92.2 ± 9.5
328.15 K	1114.4 ± 2.4	76.9 ± 7.9
333.15 K	1111.2 ± 2.4	60.6 ± 6.2
338.15 K	1108.1 ± 2.4	49.6 ± 5
343.15 K	1105 ± 2.4	41.2 ± 4.2
348.15 K	1101.9 ± 2.3	34.2 ± 3.5

Conditions	Glass transition temperature [°C]
[1]	-80 ± 20

CC[N+]1(C)CCOCC1.O=C([O-])CO [N-ethyl-N-methylmorpholinium glycolate]
[1]
Conditions	mass density [kg/m3]	viscosity [mPa·s]
298.15 K	1232.6 ± 2.9	–
303.15 K	1229.5 ± 2.9	–
308.15 K	1226.3 ± 2.9	–
313.15 K	1223 ± 2.9	–
318.15 K	1219.8 ± 2.9	2500 ± 390
323.15 K	1216.5 ± 2.9	1799 ± 270
328.15 K	1213.3 ± 2.8	1155 ± 160
333.15 K	1210.1 ± 2.8	854 ± 110
338.15 K	1207.2 ± 2.8	666 ± 86
343.15 K	1204.1 ± 2.8	488 ± 60
348.15 K	1201.1 ± 2.8	363 ± 43

Conditions	Glass transition temperature [°C]
[1]	-59 ± 20

O [water] + CC(=O)[O-].CC[N+]1(C)CCCC1
[2]
Conditions	mass density [kg/m3]	viscosity [mPa·s]
298.15 K	–	0.89 ± 0.089
303.15 K	–	0.797 ± 0.08
308.15 K	–	0.719 ± 0.072
313.15 K	–	0.653 ± 0.066
318.15 K	–	0.596 ± 0.06
323.15 K	987.9 ± 1	0.547 ± 0.055
328.15 K	985.7 ± 1	0.504 ± 0.051
333.15 K	983.2 ± 1	0.466 ± 0.047
338.15 K	980.3 ± 1	0.433 ± 0.043
343.15 K	978.1 ± 1	0.404 ± 0.041
348.15 K	974.8 ± 1	0.378 ± 0.038

O [water] + CC[N+]1(C)CCCC1.O=C([O-])CO
[2]
Conditions	mass density [kg/m3]	viscosity [mPa·s]
298.15 K	–	0.89 ± 0.089
303.15 K	–	0.797 ± 0.08
308.15 K	–	0.719 ± 0.072
313.15 K	–	0.653 ± 0.066
318.15 K	–	0.596 ± 0.06
323.15 K	987.9 ± 1	0.547 ± 0.055
328.15 K	985.7 ± 1	0.504 ± 0.051
333.15 K	983.2 ± 1	0.466 ± 0.047
338.15 K	980.3 ± 1	0.433 ± 0.043
343.15 K	978.1 ± 1	0.404 ± 0.041
348.15 K	974.8 ± 1	0.378 ± 0.038

O [water] + CC[N+]1(C)CCOCC1.O=C([O-])CO
[2]
Conditions	mass density [kg/m3]	viscosity [mPa·s]
298.15 K	–	0.89 ± 0.089
303.15 K	–	0.797 ± 0.08
308.15 K	–	0.719 ± 0.072
313.15 K	–	0.653 ± 0.066
318.15 K	–	0.596 ± 0.06
323.15 K	987.9 ± 1	0.547 ± 0.055
328.15 K	985.7 ± 1	0.504 ± 0.051
333.15 K	983.2 ± 1	0.466 ± 0.047
338.15 K	980.3 ± 1	0.433 ± 0.043
343.15 K	978.1 ± 1	0.404 ± 0.041
348.15 K	974.8 ± 1	0.378 ± 0.038
